# According to PMC5972561, “Grapevine fatty acid hydroperoxide lyase generates actin-disrupting volatiles and promotes defence-related cell death” (Journal of Experimental Botany, 2018):
# Target: T1, VvHPL1 (VvMTh-HPL1; HPL1) (Vitis vinifera, UniProt F6HID6)
# T1 sequence (F6HID6 1-487): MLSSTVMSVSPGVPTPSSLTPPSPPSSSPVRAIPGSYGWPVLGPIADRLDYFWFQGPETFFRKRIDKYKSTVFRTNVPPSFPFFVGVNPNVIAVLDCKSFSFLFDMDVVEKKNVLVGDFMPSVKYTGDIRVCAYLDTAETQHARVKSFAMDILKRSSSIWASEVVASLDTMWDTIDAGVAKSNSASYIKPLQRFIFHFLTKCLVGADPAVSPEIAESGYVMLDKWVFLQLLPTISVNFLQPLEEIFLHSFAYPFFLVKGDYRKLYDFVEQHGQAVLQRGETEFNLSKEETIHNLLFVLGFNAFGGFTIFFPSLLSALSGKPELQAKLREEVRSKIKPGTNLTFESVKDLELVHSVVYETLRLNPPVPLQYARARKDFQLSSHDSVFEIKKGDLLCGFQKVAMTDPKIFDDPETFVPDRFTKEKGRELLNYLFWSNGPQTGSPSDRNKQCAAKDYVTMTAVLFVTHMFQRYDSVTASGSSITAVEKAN
# Experiment: SBSE TD-GC-MS of volatile products
# Format: biochemical
# Conditions: 40 µM substrate, 50 mM sodium phosphate pH 7.0, ambient temperature, 2 h; enzyme partially purified
row,Structure (SMILES),SBSE TD-GC-MS of volatile products
1,"CC/C=C\C[C@@H](/C=C/C=C\CCCCCCCC(=O)O)OO [13(S)-hydroperoxy-9(Z),11(E), 15(Z)-octadecatrienoic acid]",13-HPOT as substrate yielded cis-3-hexenal and trans-2-hexenal
2,"CCCCC[C@@H](/C=C/C=C\CCCCCCCC(=O)O)OO [13(S)-hydroperoxy-9(Z), 11(E)-octadecadienoic acid]",The major product from the conversion of 13-HPOD was hexanal
